In ChEMBL document CHEMBL5726766, “Sulfonamide compounds as voltage-gated sodium channel modulators” (2019) one finds IC50 data, which are given here for 52 compounds.

The assay is described as follows: Membrane potential dye assay: HEK-293 cells overexpressing the channel of interest were seeded in a 96-well plate at a density of 30000 cells/well and incubated at 37° C./5% CO2 for 48 hr. The assay was carried out using the Red Membrane Potential Dye (Molecular Devices) following the manufacturer's instructions. Briefly, the cells were incubated with 1× red membrane potential dye for 1.5 hour. The cells were then treated with various concentrations of the test compounds for 15-20 min followed by depolarization with 10-30 μM Veratridine. The fluorescence was read following excitation at 510-545 nm and emission at 565-625 nm in FLIPR. The “max-min” fluorescence values were used to calculate the % inhibition. The following applies: HEK293.

As usually defined, the IC50 is the point on the concentration scale where inhibition reaches its midpoint.

Take `O=S(=O)(Nc1ccncn1)c1ccc2c(c1)OCC[C@@H]2c1ccc(C(F)(F)F)cc1-c1ccc(F)cc1`: the IC50 was > 10 µM.

In the case of `O=S(=O)(Nc1cccc(F)n1)c1ccc2c(c1)OCC[C@@H]2c1ccc(C(F)(F)F)cc1-n1ccnn1`, the IC50 is > 10 µM.

Regarding `O=S(=O)(Nc1ncc(F)cn1)c1ccc2c(c1)OCC[C@@H]2c1ccc(C(F)(F)F)cc1-c1ccc(F)cc1`, the IC50 was > 10 µM.

In the case of `O=S(=O)(Nc1ncc(F)cn1)c1ccc2c(c1)OCC[C@@H]2c1ccc(C(F)(F)F)cc1-n1ccnn1`, the IC50 is > 10 µM.

`O=S(=O)(Nc1ccncn1)c1ccc2c(c1)OCC[C@@H]2c1ccc(C(F)(F)F)cc1-n1ccnn1`: the IC50 was > 10 µM.

As for `O=S(=O)(Nc1ncc(F)cn1)c1ccc2c(c1)OCC[C@@H]2c1ccc(C(F)(F)F)cc1-c1ccc(F)nc1`, the IC50 was > 10 µM.

`Cn1nccc1-c1cc(C(F)(F)F)ccc1[C@H]1CCOc2cc(S(=O)(=O)Nc3cnccn3)ccc21`: the IC50 is > 10 µM.

Take `Cn1nccc1-c1cc(C(F)(F)F)ccc1[C@H]1CCOc2cc(S(=O)(=O)Nc3ccncn3)ccc21`: the IC50 was > 10 µM.

Take `O=S(=O)(Nc1ncccn1)c1ccc2c(c1)OCC[C@@H]2c1ccc(C(F)(F)F)cc1-n1ccnn1`: the IC50 is > 10 µM.

As to `Cn1nccc1-c1cc(C(F)(F)F)ccc1[C@H]1CCOc2cc(S(=O)(=O)Nc3cccnc3F)ccc21`, the IC50 was > 10 µM.

Turning to `O=S(=O)(Nc1cccc(F)n1)c1ccc2c(c1)OCC[C@H]2c1ccc(C(F)(F)F)cc1-c1ccc(F)cc1`, the IC50 is > 10 µM.

For the compound `CCOc1ccc(-c2cc(C(F)(F)F)ccc2[C@H]2CCOc3cc(S(=O)(=O)Nc4ncc(F)cn4)ccc32)cn1`, the IC50 was > 10 µM.

Turning to `O=S(=O)(Nc1ncccn1)c1ccc2c(c1)OCC[C@H]2c1ccc(C(F)(F)F)cc1-n1ccnn1`, the IC50 is > 10 µM.

For `CC(C)Oc1cccc(NS(=O)(=O)c2ccc3c(c2)OCC[C@@H]3c2ccc(C(F)(F)F)cc2-c2ccnn2C)n1`, the IC50 was > 10 µM.

With `Cn1nccc1-c1cc(C(F)(F)F)ccc1[C@H]1CCOc2cc(S(=O)(=O)Nc3ncccc3F)ccc21`, the IC50 was > 10 µM.

Take `Cn1nccc1-c1cc(Cl)ccc1[C@@H]1CCOc2cc(S(=O)(=O)Nc3cccc(F)n3)ccc21`: the IC50 is > 10 µM.

`Cc1ccnc(NS(=O)(=O)c2ccc3c(c2)OCC[C@H]3c2ccc(C(F)(F)F)cc2-c2ccnn2C)n1`: the half-maximal inhibitory concentration (IC50) was > 10 µM.

For the compound `O=S(=O)(Nc1cccc(F)n1)c1ccc2c(c1)OCC[C@H]2c1ccc(C(F)(F)F)cc1-n1ccnn1`, the IC50 is > 10 µM.

In the case of `O=S(=O)(Nc1cccc(F)n1)c1ccc2c(c1)OCC[C@H]2c1ccc(C(F)(F)F)cc1-n1cccn1`, the IC50 was > 10 µM.

For the compound `O=S(=O)(Nc1ncc(F)cn1)c1ccc2c(c1)OCC[C@H]2c1ccc(C(F)(F)F)cc1-c1ccc(F)cc1`, the IC50 was > 10 µM.

In the case of `Cc1ccnc(NS(=O)(=O)c2ccc3c(c2)OCC[C@@H]3c2ccc(C(F)(F)F)cc2-c2ccnn2C)n1`, the IC50 is > 10 µM.

As to `Cn1nccc1-c1cc(Cl)ccc1[C@H]1CCOc2cc(S(=O)(=O)Nc3cccc(F)n3)ccc21`, the IC50 is > 10 µM.

`Cc1nc(-c2cc(C(F)(F)F)ccc2[C@@H]2CCOc3cc(S(=O)(=O)Nc4cccc(F)n4)ccc32)cs1`: the IC50 was > 10 µM.

In the case of `O=S(=O)(Nc1ccncn1)c1ccc2c(c1)OCC[C@H]2c1ccc(C(F)(F)F)cc1-n1ccnn1`, the IC50 was > 10 µM.

Consider `O=S(=O)(Nc1ncc(F)cn1)c1ccc2c(c1)OCC[C@H]2c1ccc(C(F)(F)F)cc1-n1ccnn1`, for which the IC50 is > 10 µM.

As for `CS(=O)(=O)CCc1cc(C(F)(F)F)ccc1[C@@H]1CCOc2cc(S(=O)(=O)Nc3ccncn3)ccc21`, the IC50 is > 10 µM.

On to `Cc1nc(-c2cc(C(F)(F)F)ccc2[C@@H]2CCOc3cc(S(=O)(=O)Nc4cccnn4)ccc32)co1`, for which the IC50 is > 10 µM.

For the compound `CC(C)Oc1ccc([C@@H]2CCOc3cc(S(=O)(=O)Nc4cccc(F)n4)ccc32)c(-c2ccnn2C)c1`, the IC50 was > 10 µM.

In the case of `CS(=O)(=O)CCc1cc(C(F)(F)F)ccc1[C@H]1CCOc2cc(S(=O)(=O)Nc3ncccn3)ccc21`, the IC50 was > 10 µM.

As for `CC(C)Oc1ccc(-c2cc(C(F)(F)F)ccc2[C@H]2CCOc3cc(S(=O)(=O)Nc4ncc(F)cn4)ccc32)cn1`, the IC50 is > 10 µM.

On to `Cc1nc(-c2cc(C(F)(F)F)ccc2[C@@H]2CCOc3cc(S(=O)(=O)Nc4ccncn4)ccc32)cs1`, for which the IC50 was > 10 µM.

In the case of `Cc1nc(-c2cc(C(F)(F)F)ccc2[C@H]2CCOc3cc(S(=O)(=O)Nc4cccnn4)ccc32)cs1`, the IC50 was > 10 µM.

As for `O=S(=O)(Nc1ncc(F)cn1)c1ccc2c(c1)OCC[C@H]2c1ccc(C(F)(F)F)cc1-c1ccc(F)nc1`, the IC50 is > 10 µM.

As to `CS(=O)(=O)CCc1cc(C(F)(F)F)ccc1[C@H]1CCOc2cc(S(=O)(=O)Nc3cccc(F)n3)ccc21`, the IC50 was > 10 µM.

Turning to `Cn1nccc1-c1cc(C(F)(F)F)ccc1[C@@H]1CCOc2cc(S(=O)(=O)Nc3cnccn3)ccc21`, the IC50 was > 10 µM.

Regarding `O=S(=O)(Nc1cccnn1)c1ccc2c(c1)OCC[C@@H]2c1ccc(C(F)(F)F)cc1-n1ccnn1`, the IC50 was > 10 µM.

In the case of `Cc1nc(-c2cc(C(F)(F)F)ccc2[C@@H]2CCOc3cc(S(=O)(=O)Nc4ncccn4)ccc32)cs1`, the IC50 was > 10 µM.

Turning to `Cc1nc(-c2cc(C(F)(F)F)ccc2[C@H]2CCOc3cc(S(=O)(=O)Nc4ncccn4)ccc32)cs1`, the IC50 is > 10 µM.

With `Cn1nccc1-c1cc(C(F)(F)F)ccc1[C@@H]1CCOc2cc(S(=O)(=O)Nc3cccnc3F)ccc21`, the IC50 was > 10 µM.

For the compound `O=S(=O)(Nc1cccnn1)c1ccc2c(c1)OCC[C@H]2c1ccc(C(F)(F)F)cc1-c1ccc(F)nc1`, the IC50 was > 10 µM.

As to `CS(=O)(=O)CCc1cc(C(F)(F)F)ccc1[C@@H]1CCOc2cc(S(=O)(=O)Nc3ncc(F)cn3)ccc21`, the IC50 was > 10 µM.

Turning to `CC(C)Oc1cccc(NS(=O)(=O)c2ccc3c(c2)OCC[C@H]3c2ccc(C(F)(F)F)cc2-c2ccnn2C)n1`, the half-inhibitory concentration (IC50) is > 10 µM.

As to `Cn1nccc1-c1cc(C(F)(F)F)ccc1[C@@H]1CCOc2cc(S(=O)(=O)Nc3ncccc3F)ccc21`, the IC50 is > 10 µM.

On to `O=S(=O)(Nc1ccncn1)c1ccc2c(c1)OCC[C@H]2c1ccc(C(F)(F)F)cc1-c1ccc(F)cc1`, for which the IC50 is > 10 µM.

For the compound `Cc1cccc(NS(=O)(=O)c2ccc3c(c2)OCC[C@H]3c2ccc(C(F)(F)F)cc2-c2ccnn2C)n1`, the IC50 is > 10 µM.

As for `CS(=O)(=O)CCc1cc(C(F)(F)F)ccc1[C@@H]1CCOc2cc(S(=O)(=O)Nc3ncccn3)ccc21`, the IC50 was > 10 µM.

`CS(=O)(=O)CCc1cc(C(F)(F)F)ccc1[C@H]1CCOc2cc(S(=O)(=O)Nc3ncc(F)cn3)ccc21`: the IC50 is > 10 µM.

Take `Cn1nccc1-c1cc(C(F)(F)F)ccc1[C@@H]1CCOc2cc(S(=O)(=O)Nc3cc(F)ccn3)ccc21`: the IC50 is > 10 µM.

In the case of `O=S(=O)(Nc1cccc(F)n1)c1ccc2c(c1)OCC[C@@H]2c1ccc(C(F)(F)F)cc1-n1cccn1`, the IC50 was > 10 µM.

For the compound `Cn1nccc1-c1cc(C(F)(F)F)ccc1[C@@H]1CCOc2cc(S(=O)(=O)Nc3ccncn3)ccc21`, the IC50 was > 10 µM.

With `CS(=O)(=O)CCc1cc(C(F)(F)F)ccc1[C@H]1CCOc2cc(S(=O)(=O)Nc3ccncn3)ccc21`, the IC50 is > 10 µM.

For the compound `CC(C)Oc1ccc([C@H]2CCOc3cc(S(=O)(=O)Nc4cccc(F)n4)ccc32)c(-c2ccnn2C)c1`, the IC50 was > 10 µM.
